Data on 1 substance can be found in patent publication US20060135906A1, “Iontophoretic device and method for administering immune response-enhancing agents and compositions” (priority 2004, published 2006).

In this assay the test system is 57BL/6 mice. Nature of the assay: Antibody titers (IgG1, IgG2) in mice given Mtb72F vaccine plus MPL adjuvant. The following applies: for antibody titer of IgG1 / antibody titer of IgG2: Mtb72F 10 μg injected, compared with no MPL administered.
Setting [1] is: day 43, MPL administered iontophoretically (transcutaneous).
[2] abbreviates: day 43, MPL by intracutaneous injection (MPL-AF or MPL-SE, 20 μg).

On to monophosphoryl lipid A [MPL], for which the immune response-enhancing effects result (MPL administered iontophoretically, compared with intracutaneous injection) is listed as “significant immune response-enhancing effects equivalent to those obtained by intracutaneous injection”. The “antibody titer results, iontophoretic delivery compared with intracutaneous injection” value (day 43, IgG1 and IgG2) is “nearly identical”. Besides, the “antibody titer of IgG1” value is on record as “significantly higher” under setting [1] and “significantly higher” under setting [2]. The “antibody titer of IgG2” value under setting [1] is “significantly higher” and the “antibody titer of IgG2” value under setting [2] is on record as “significantly higher”.
